Data published in the NIST ThermoML archive (doi:10.1021/je034162x).
Numbers after ± are expanded uncertainties.

Settings: 101.33 kPa, Liquid, Hot wire method

Cc1ccccc1C [1,2-dimethylbenzene]
Settings	thermal conductivity [W/m/K]	thermal diffusivity [m2/s]
257.75 K	0.1368 ± 0.0011	–
257.96 K	0.1369 ± 0.0011	–
258.1 K	0.1368 ± 0.0011	–
258.47 K	–	9.16e-08 ± 1.8e-09
259 K	–	9.21e-08 ± 1.8e-09
259.35 K	–	9.19e-08 ± 1.8e-09
277.07 K	0.1334 ± 0.0011	–
277.27 K	0.1333 ± 0.0011	–
277.42 K	0.1333 ± 0.0011	–
277.79 K	–	8.78e-08 ± 1.7e-09
278.28 K	–	8.75e-08 ± 1.7e-09
278.66 K	–	8.79e-08 ± 1.7e-09
295.56 K	0.1296 ± 0.001	–
295.78 K	0.1296 ± 0.001	–
295.91 K	0.1294 ± 0.001	–
296.29 K	–	8.46e-08 ± 1.6e-09
296.81 K	–	8.48e-08 ± 1.6e-09
297.15 K	–	8.42e-08 ± 1.6e-09
312.07 K	0.1259 ± 0.001	–
312.29 K	0.1258 ± 0.001	–
312.44 K	0.1257 ± 0.001	–
312.82 K	–	8.18e-08 ± 1.6e-09
313.34 K	–	8.17e-08 ± 1.6e-09
313.7 K	–	8.15e-08 ± 1.6e-09
328.72 K	0.1222 ± 0.00098	–
328.94 K	0.122 ± 0.00098	–
329.09 K	0.1219 ± 0.00098	–
329.45 K	–	7.83e-08 ± 1.5e-09
329.98 K	–	7.83e-08 ± 1.5e-09
330.35 K	–	7.81e-08 ± 1.5e-09

C1CCCCCC1 [cycloheptane]
Settings	thermal conductivity [W/m/K]	thermal diffusivity [m2/s]
262.18 K	0.1272 ± 0.0012	–
262.37 K	0.1271 ± 0.0012	–
262.5 K	0.1271 ± 0.0012	–
262.77 K	–	8.84e-08 ± 1.8e-09
263.24 K	–	8.9e-08 ± 1.8e-09
263.56 K	–	8.91e-08 ± 1.8e-09
280.17 K	0.1228 ± 0.0012	–
280.35 K	0.1227 ± 0.0012	–
280.48 K	0.1227 ± 0.0012	–
280.76 K	–	8.39e-08 ± 1.7e-09
281.19 K	–	8.4e-08 ± 1.7e-09
281.5 K	–	8.4e-08 ± 1.7e-09
297.01 K	0.1187 ± 0.0012	–
297.2 K	0.1185 ± 0.0012	–
297.33 K	0.1185 ± 0.0012	–
297.59 K	–	7.97e-08 ± 1.6e-09
298.03 K	–	7.98e-08 ± 1.6e-09
298.33 K	–	7.98e-08 ± 1.6e-09
320.05 K	0.1132 ± 0.0011	–
320.23 K	0.1131 ± 0.0011	–
320.36 K	0.113 ± 0.0011	–
320.62 K	–	7.47e-08 ± 1.5e-09
321.05 K	–	7.46e-08 ± 1.5e-09
321.34 K	–	7.46e-08 ± 1.5e-09

C1CCCCCCC1 [cyclooctane]
Settings	thermal conductivity [W/m/K]	thermal diffusivity [m2/s]
288.7 K	0.1205 ± 0.00097	–
288.96 K	0.1203 ± 0.00096	–
289.17 K	0.1202 ± 0.00096	–
289.34 K	–	7.48e-08 ± 1.4e-09
289.97 K	–	7.48e-08 ± 1.4e-09
290.48 K	–	7.48e-08 ± 1.4e-09
295.85 K	0.1191 ± 0.00096	–
295.88 K	0.1191 ± 0.00096	–
296.09 K	0.1189 ± 0.00096	–
296.21 K	0.1188 ± 0.00095	–
296.43 K	–	7.39e-08 ± 1.5e-09
296.51 K	–	7.35e-08 ± 1.5e-09
297.02 K	–	7.36e-08 ± 1.4e-09
297.3 K	–	7.36e-08 ± 1.4e-09
311.67 K	0.1156 ± 0.00093	–
311.88 K	0.1154 ± 0.00093	–
312.1 K	0.1154 ± 0.00093	–
312.37 K	–	7.05e-08 ± 1.4e-09
312.87 K	–	7.03e-08 ± 1.4e-09
313.4 K	–	7.04e-08 ± 1.4e-09
328.99 K	0.1119 ± 0.0009	–
329.22 K	0.1118 ± 0.0009	–
329.43 K	0.1117 ± 0.0009	–
329.7 K	–	6.75e-08 ± 1.3e-09
330.22 K	–	6.75e-08 ± 1.3e-09
330.71 K	–	6.72e-08 ± 1.3e-09

C1CCCC1 [cyclopentane]
Settings	thermal conductivity [W/m/K]	thermal diffusivity [m2/s]
257.08 K	0.1428 ± 0.0011	–
257.27 K	0.1426 ± 0.0011	–
257.4 K	0.1425 ± 0.0011	–
257.78 K	–	1.11e-07 ± 2.1e-09
258.26 K	–	1.11e-07 ± 2.1e-09
258.6 K	–	1.11e-07 ± 2.1e-09
276.13 K	0.1349 ± 0.0011	–
276.33 K	0.1348 ± 0.0011	–
276.47 K	0.1348 ± 0.0011	–
276.83 K	–	1.03e-07 ± 2e-09
277.31 K	–	1.03e-07 ± 2e-09
277.68 K	–	1.03e-07 ± 2e-09
293.63 K	0.1281 ± 0.001	–
293.83 K	0.1279 ± 0.001	–
293.97 K	0.1278 ± 0.001	–
294.33 K	–	9.64e-08 ± 1.9e-09
294.82 K	–	9.62e-08 ± 1.8e-09
295.17 K	–	9.61e-08 ± 1.8e-09
300.67 K	0.1254 ± 0.001	–
300.87 K	0.1253 ± 0.001	–
301.01 K	0.1251 ± 0.001	–
301.34 K	–	9.3e-08 ± 1.8e-09
301.83 K	–	9.29e-08 ± 1.8e-09
302.17 K	–	9.28e-08 ± 1.8e-09
316.21 K	0.1195 ± 0.00096	–
316.4 K	0.1193 ± 0.00096	–
316.54 K	0.1192 ± 0.00096	–
316.87 K	–	8.68e-08 ± 1.7e-09
317.34 K	–	8.66e-08 ± 1.7e-09
317.67 K	–	8.65e-08 ± 1.7e-09

CCc1ccccc1 [ethylbenzene]
Settings	thermal conductivity [W/m/K]	thermal diffusivity [m2/s]
258 K	0.1375 ± 0.0011	–
258.29 K	0.1374 ± 0.0011	–
258.5 K	0.1373 ± 0.0011	–
259.49 K	–	9.45e-08 ± 1.8e-09
260.41 K	–	9.43e-08 ± 1.8e-09
261.06 K	–	9.41e-08 ± 1.8e-09
277.34 K	0.1328 ± 0.0011	–
277.65 K	0.1327 ± 0.0011	–
277.88 K	0.1326 ± 0.0011	–
278.88 K	–	9.04e-08 ± 1.7e-09
279.84 K	–	9.02e-08 ± 1.7e-09
280.53 K	–	9.02e-08 ± 1.7e-09
295.86 K	0.1282 ± 0.001	–
296.19 K	0.128 ± 0.001	–
296.42 K	0.128 ± 0.001	–
297.44 K	–	8.66e-08 ± 1.7e-09
298.45 K	–	8.67e-08 ± 1.7e-09
299.16 K	–	8.66e-08 ± 1.7e-09
312.38 K	0.124 ± 0.00099	–
312.72 K	0.1238 ± 0.00099	–
312.96 K	0.1237 ± 0.00099	–
313.99 K	–	8.29e-08 ± 1.6e-09
315.01 K	–	8.28e-08 ± 1.6e-09
315.73 K	–	8.28e-08 ± 1.6e-09
329.05 K	0.1199 ± 0.00096	–
329.41 K	0.1197 ± 0.00096	–
329.66 K	0.1196 ± 0.00096	–
330.69 K	–	7.97e-08 ± 1.5e-09
331.74 K	–	7.96e-08 ± 1.5e-09
332.49 K	–	7.95e-08 ± 1.5e-09

C1CCCCC1 [cyclohexane]
Settings	thermal conductivity [W/m/K]	thermal diffusivity [m2/s]
280.83 K	0.1232 ± 0.00077	–
281 K	0.1231 ± 0.00077	–
281.15 K	0.123 ± 0.00077	–
281.38 K	–	8.75e-08 ± 1.6e-09
281.78 K	–	8.73e-08 ± 1.6e-09
282.12 K	–	8.75e-08 ± 1.6e-09
295.53 K	0.119 ± 0.00075	–
295.7 K	0.1189 ± 0.00075	–
295.83 K	0.1187 ± 0.00075	–
296.05 K	–	8.25e-08 ± 1.5e-09
296.45 K	–	8.28e-08 ± 1.5e-09
296.76 K	–	8.24e-08 ± 1.5e-09
300.84 K	0.1175 ± 0.00075	–
301 K	0.1173 ± 0.00074	–
301.14 K	0.1172 ± 0.00074	–
301.35 K	–	8.09e-08 ± 1.5e-09
301.73 K	–	8.06e-08 ± 1.5e-09
302.06 K	–	8.09e-08 ± 1.5e-09
318.66 K	0.1124 ± 0.00072	–
318.82 K	0.1123 ± 0.00072	–
318.95 K	0.1121 ± 0.00071	–
319.16 K	–	7.6e-08 ± 1.4e-09
319.54 K	–	7.59e-08 ± 1.4e-09
319.84 K	–	7.56e-08 ± 1.4e-09
